This passage reports Activity results from ChEMBL document CHEMBL1153916, “Lithospermic acid derivatives from Lithospermum erythrorhizon increased expression of serine palmitoyltransferase in human HaCaT cells” (Bioorg Med Chem Lett, 2009).

In data set [1] the test system is HaCaT. The experiment in a line: Increase in serine palmitoyltransferase 2 mRNA expression in human HaCaT cells by RT-PCR relative to untreated control. Format: functional.
Data set [2] deals with HaCaT. The experiment in a line: Increase in serine palmitoyltransferase protein expression in human HaCaT cells at 30 ug/mL by Western blot relative to untreated control. Type of data set: functional. (In general: Immunoblotting shows a protein as a band on a membrane.)
Data set [3] has as its system HaCaT. The experiment in a line: Increase in serine palmitoyltransferase protein expression in human HaCaT cells at 100 ug/mL by Western blot relative to untreated control. Type of data set: functional.
Data set [4] has as its system HaCaT. The experiment in a line: Effect on p65 nuclear expression in human HaCaT cells at 100 ug/mL after 12 hrs by Western blot. Type of data set: functional, cell-based.
Data set [5] deals with HaCaT. In words: Activation of NF-kappaB expressed in human HaCaT cells by luciferase reporter gene assay. Type of data set: cell-based.
Data set [6] deals with HaCaT. In words: Cytotoxicity against human HaCaT cells at 50 to 200 ug/mL by MTT assay. Type of data set: cell-based. A general note: Tetrazolium dyes change colour on reduction, which living cells bring about.
The test system of data set [7] is HaCaT. The experiment in a line: Increase in serine palmitoyltransferase 1 mRNA expression in human HaCaT cells by RT-PCR relative to untreated control. Format: functional.

Active and inactive are the calls of the source. The rule behind the calls is not given here.

Turning to `COC(=O)[C@@H](Cc1ccc(O)c(O)c1)OC(=O)/C=C/c1ccc(O)c2c1[C@H](C(=O)O)[C@@H](c1ccc(O)c(O)c1)O2`, the Activity in the data set with HaCaT [1] was 159%; in the data set on HaCaT [2] it was 20.2%; in the data set on HaCaT [3], 81%; with HaCaT [6], “Non-toxic”; in the data set on HaCaT [7] it was 148%. The result in the data set with HaCaT [4] and with HaCaT [5] was inactive.

In the case of `NC(=O)c1cccnc1` [NIACINAMIDE], the Activity in the data set on HaCaT [1] is reported as 128%; with HaCaT [3], 57.3%; in the data set on HaCaT [7], 127%.

On to `O=C(/C=C/c1ccc(O)c2c1[C@H](C(=O)O)[C@@H](c1ccc(O)c(O)c1)O2)O[C@H](Cc1ccc(O)c(O)c1)C(=O)O` [LITHOSPERMIC ACID], for which the Activity with HaCaT [1] is 151%; with HaCaT [2] it was 21.7%; in the data set with HaCaT [3], 55%; in the data set on HaCaT [6], “Non-toxic”; in the data set with HaCaT [7], 121%. Besides, the result in the data set with HaCaT [4] and in the data set with HaCaT [5] was inactive.

Take `COC(=O)[C@H]1c2c(/C=C/C(=O)O[C@H](Cc3ccc(O)c(O)c3)C(=O)O)ccc(O)c2O[C@@H]1c1ccc(O)c(O)c1`: the Activity in the data set with HaCaT [1] is 139%; in the data set with HaCaT [2], 8.9%; in the data set on HaCaT [3], 23%; with HaCaT [6], “Non-toxic”; in the data set with HaCaT [7] it was 139%. The outcome with HaCaT [4] and in the data set with HaCaT [5] was inactive.
